pEC50: −log10 of the molar value.
Each compound was assayed against T1, human TLR7 (Homo sapiens, UniProt Q9NYK1) (assay: Human TLR7 reporter assay (NF-kB-SEAP in HEK293 cells)). Conditions: HEK293 cells stably carrying human TLR7 plasmid and NF-kB-SEAP reporter plasmid; 20 hours culture; 1 nM-10 μM; absorbance 405 nm; read-out: Human TLR7 binding activity (EC50).
T1 construct: expressed in transfected cells; host or cells: HEK293 (hTLR7/seap-293), stably transfected with the TLR7 plasmid and the NF-kB-SEAP reporter plasmid
T1 sequence (Q9NYK1 27-1049): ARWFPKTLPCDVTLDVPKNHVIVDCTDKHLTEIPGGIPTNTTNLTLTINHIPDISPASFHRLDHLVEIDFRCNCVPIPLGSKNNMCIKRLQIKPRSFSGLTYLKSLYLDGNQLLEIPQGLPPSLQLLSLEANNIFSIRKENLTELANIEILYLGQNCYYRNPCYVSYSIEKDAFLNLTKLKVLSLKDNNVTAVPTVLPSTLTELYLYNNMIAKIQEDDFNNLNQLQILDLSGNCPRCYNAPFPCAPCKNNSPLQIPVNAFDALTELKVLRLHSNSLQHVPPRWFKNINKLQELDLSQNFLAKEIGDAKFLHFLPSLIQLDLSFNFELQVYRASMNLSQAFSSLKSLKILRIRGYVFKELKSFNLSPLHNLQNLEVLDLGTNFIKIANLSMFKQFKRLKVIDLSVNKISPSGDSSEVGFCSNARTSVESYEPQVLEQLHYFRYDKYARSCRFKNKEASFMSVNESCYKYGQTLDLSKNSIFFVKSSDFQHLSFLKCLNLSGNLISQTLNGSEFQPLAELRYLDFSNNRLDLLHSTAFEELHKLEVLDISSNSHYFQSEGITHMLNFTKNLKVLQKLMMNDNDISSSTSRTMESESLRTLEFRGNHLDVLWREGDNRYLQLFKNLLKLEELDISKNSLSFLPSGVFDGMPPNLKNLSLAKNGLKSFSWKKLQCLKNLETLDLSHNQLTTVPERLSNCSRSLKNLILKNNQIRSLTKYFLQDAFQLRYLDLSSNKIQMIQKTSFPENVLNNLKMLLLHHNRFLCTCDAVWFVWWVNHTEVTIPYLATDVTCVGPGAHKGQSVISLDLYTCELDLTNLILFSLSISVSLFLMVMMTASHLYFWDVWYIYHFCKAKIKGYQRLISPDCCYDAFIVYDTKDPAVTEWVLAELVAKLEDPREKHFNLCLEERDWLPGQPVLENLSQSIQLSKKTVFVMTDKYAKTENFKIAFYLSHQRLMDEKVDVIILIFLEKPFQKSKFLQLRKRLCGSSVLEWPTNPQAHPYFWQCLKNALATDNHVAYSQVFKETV
Assay type: cell-based
Experimental: Human TLR7 Reporter Assay
HEK293 cells in which human TLR7 or rat TLR7 plasmid and reporter plasmid (NF-kB-SEAP) are stably introduced are dispersed in DMEM broth (10% FBS, 1% NEAA, 10 ug/mL blastocidin S HCl, 100 ug/mL Zeocin), and were seeded to 96 well plate per 90 μl/well (hTLR7/seap-293:20000 cells/well, rTLR7/seap-293:25000 cells/well).
Test compound (DMSO stock solution (2 μl) was diluted with the broth (200 μl) by 100 times) was added to the seeded cells to a 96 well plate (10 μl/well) (final concentration; 1 nM-10 μM, common ratio). After stirring by tapping side of the plate, the cells were cultured in a CO2 incubator for 20 hours. A substrate (50 μl/well) for reporter assay (substrate for SEAP, pNPP) was added to cells stimulated by test sample. Ten minutes after adding the substrate, the reaction quenching solution (4N NaOH) was added by 50 μl/well to cease enzymatic reaction. Sealing a top seal A on the plate, the absorbance was measured by a micro plate reader (405 nm).

In order of falling pEC50:
1. CCCCOc1nc(N)c2[nH]c(=O)n(Cc3ccc(OCCCCNCc4cccc(CC(=O)OC)c4)nc3)c2n1 [Example 12, 2-Butoxy-7,8-dihydro-9-{6-[4-(3-methoxycarbonylmethylbenzyl)aminobutoxy]pyridin-3-ylmethyl}-8-oxoadenine]  8.04
2. CCCCOc1nc(N)c2[nH]c(=O)n(Cc3ccc(OCCCCN(C)Cc4cccc(CC(=O)OC)c4)nc3)c2n1 [Example 15, 2-Butoxy-7,8-dihydro-9-[6-(4-[{N-methyl-N-[3-(methoxycarbonylmethyl)benzyl]}amino]butoxy)pyridin-3-ylmethyl]-8-oxoadenine]  8.03
3. CCCCOc1nc(N)c2[nH]c(=O)n(Cc3ccc(OCCCNCc4cccc(CC(=O)OC)c4)cc3)c2n1 [Example 3, 2-Butoxy-7,8-dihydro-9-([3-{N-[3-(methoxycarbonylmethyl)benzyl]amino}propoxy]benzyl)-8-oxoadenine]  7.69
4. CCCCOc1nc(N)c2[nH]c(=O)n(Cc3ccc(CN(C)CCOc4cc(CC(=O)OC)ccc4OC)cc3)c2n1 [Example 11, 2-Butoxy-7,8-dihydro-9-[4-(N-{2-[2-methoxy-5-(methoxycarbonylmethyl)phenoxy]ethyl}-N-methylaminomethyl)benzyl]-8-oxoadenine]  7.68
5. CCCCOc1nc(N)c2[nH]c(=O)n(Cc3ccc(OCCCCN(CCCN4CCOCC4)Cc4cccc(CC(=O)OC)c4)nc3)c2n1 [Example 17, 2-Butoxy-7,8-dihydro-9-(6-[4-{[N-(3-methoxycarbonylmethylbenzyl)-N-(3-morpholinopropyl)]amino}butoxy]pyridin-3-ylmethyl)-8-oxoadenine]  7.68
6. CCCCOc1nc(N)c2[nH]c(=O)n(Cc3ccc(CN(CCCN4CCOCC4)Cc4cccc(CC(=O)OC)c4)cc3)c2n1 [Example 7, 2-Butoxy-7,8-dihydro-9-(4-{N-[3-(methoxycarbonylmethyl)benzyl]-N-(3-morpholin-4-ylpropyl)aminomethyl}benzyl)-8-oxoadenine]  7.62
7. CCCCOc1nc(N)c2[nH]c(=O)n(Cc3ccc(OCCCN(C)Cc4cccc(CC(=O)OC)c4)cc3)c2n1 [Example 1, 2-Butoxy-7,8-dihydro-9-[(3-[{N-methyl-N-[3-(methoxycarbonylmethyl)benzyl]}amino]propoxy)benzyl]-8-oxoadenine]  7.59
8. CCCCOc1nc(N)c2[nH]c(=O)n(Cc3ccc(CN(C)CCOc4cccc(CC(=O)OC)c4)cc3)c2n1 [Example 9, 2-Butoxy-7,8-dihydro-9-[4-(N-{2-[3-(methoxycarbonylmethyl)phenoxy]ethyl}-N-methylaminomethyl)benzyl]-8-oxoadenine]  7.55
9. CCCCOc1nc(N)c2[nH]c(=O)n(Cc3ccc(OCCCCN(C)Cc4cccc(CC(=O)O)c4)nc3)c2n1 [Example 16, 2-Butoxy-7,8-dihydro-9-[6-(4-[{N-[3-(carboxymethyl)benzyl]-N-methyl}amino]butoxy)pyridin-3-ylmethyl]-8-oxoadenine]  7.53
10. CCCCOc1nc(N)c2[nH]c(=O)n(Cc3ccc(CN(CCCO)Cc4cccc(CC(=O)OC)c4)cc3)c2n1 [Example 5, 2-Butoxy-7,8-dihydro-9-(4-{N-(3-hydroxypropyl)-N-[3-(methoxycarbonylmethyl)benzyl]aminomethyl}benzyl)-8-oxoadenine]  7.39
11. COCCOc1nc(N)c2[nH]c(=O)n(Cc3ccc(CN(C)CCOc4cccc(CC(=O)OC)c4)cc3)c2n1 [Example 19, 7,8-Dihydro-9-[4-{N-[2-(3-methoxycarbonylmethylphenyl-1-yl)oxyethyl]-N-methylamino}methylbenzyl]-2-(2-methoxyethoxy)-8-oxoadenine]  7.29
12. CCCCOc1nc(N)c2[nH]c(=O)n(Cc3ccc(CN(CCCN4CCOCC4)Cc4cccc(CC(=O)O)c4)cc3)c2n1 [Example 8, 2-Butoxy-7,8-dihydro-9-(4-{N-[3-(hydroxycarbonylmethyl)benzyl]-N-(3-morpholin-4-ylpropyl)aminomethyl}benzyl)-8-oxoadenine]  6.60

Reference: patent publication US20090118263A1, “Novel Adenine Compound” (priority 2005, published 2009)
